From patent publication US10265286B2, “Sequelae of cardiopulmonary bypass-induced pulmonary injury” (Vanderbilt University, priority 2016, dated 2019)

What was measured:
[1] = Randomized placebo controlled intravenous citrulline study, 77 patients (plasma citrulline target); type: in vivo, human; conditions: citrulline removed by hemofiltration during CPB
Description: An intravenous citrulline study conducted was a randomized, placebo controlled, double blind study with the primary clinical outcome being length of mechanical ventilation postoperatively and secondarily the incidence of postoperative pulmonary hypertension between the 2 treatment groups (citrulline vs placebo).
A total of 77 patients were enrolled at Vanderbilt Children's Hospital. Patients were screened based on the surgical schedule. Based on this schedule, patients undergoing one of the 5 planned cardiac surgeries included in this study were screened (patients undergoing the Norwood procedure are now excluded at the recommendation of the DSMB).

[2] = Phase IB study: postoperative invasive mechanical ventilation; type: in vivo, human; conditions: end of surgery until last extubation, FIG. 20
[3] = Hemodynamics (mean arterial blood pressure) after intravenous citrulline in piglets; type: in vivo, Duroc swine; conditions: 600 mg/kg IV
Procedure: The objective was to assess the safety of intravenous citrulline and its effect on serum arginine levels in piglets. A total of 9 Duroc swine, aged 5-21 days, with a target minimum weight of 4 kg were utilized. All piglets underwent anesthetic induction and tracheostomy. Central lines were placed in the femoral artery and femoral vein and hemodynamics monitored continuously. Citrulline (600 mg/kg IV) was administered to 5 piglets. Saline was given to control animals. Serum amino acids were drawn before and each hour after citrulline administration.

[4] = Phase IB study: duration of ICU stay; type: in vivo, human
Procedure: Duration of ICU stay was analyzed once as the total number of postoperative hours spent in the ICU and once as the total number of postoperative hours that a patient required postoperative mechanical ventilator or continuous intravenous inotrope or vasodilator support. The latter combination of parameters represents another surrogate endpoint for ICU stay.

[5] = Phase IB study: duration of hospitalization; type: in vivo, human; conditions: postoperative until discharge
Procedure: Duration of hospitalization was calculated as the total number of days postoperative until discharge from the hospital. The average duration of hospitalization was lower in the citrulline than the placebo treatment group, however, the difference was not statistically significant (Table 17).

[6] = Phase IB study: postoperative invasive mechanical ventilation; type: in vivo, human; conditions: for patients extubated in the operating room: Site 02
Procedure: The duration of postoperative invasive mechanical ventilation was derived as the time in hours from separation from cardiopulmonary bypass until endotracheal extubation. If a patient required reintubation within 24 hours after extubation, the reintubation time was added in the main analysis. In a second analysis, the reintubation time was not included.

[7] = Phase IB study: composite of invasive mechanical ventilation or inotrope use; type: in vivo, human
Description: The cessation of positive pressure ventilation and of inotrope therapy are the two principal determinants of readiness for discharge from the intensive care unit. They were combined as a composite variable to serve as an additional effective surrogate endpoint for the duration of ICU stay.
The composite endpoint comprised the longer of the duration of positive pressure ventilatory support or of inotrope therapy. Since inotrope use was only documented until Hour 48 after surgery (end of study medication treatment), patients with inotrope use continuing until Hour 48 and with mechanical ventilation duration of ≤48 h were censored at this time point. If mechanical ventilation was continued beyond the 48-hour time point, the duration of mechanical ventilation was used in the analysis.

[8] = Phase IB study: plasma nitric oxide (NO metabolite) concentrations; type: in vivo, human; conditions: each of the treatment groups
Procedure: (§1) Twenty two (22) patients were enrolled and treated. Patients received an IV citrulline bolus of 150 mg/kg or placebo at the initiation of CPB, followed by the addition of L-citrulline at a concentration of 200 μmol/L or placebo to the filtration or hemoconcentration replacement fluid used during CPB. A citrulline bolus of 20 mg/kg was administered 30 minutes after decannulation from CPB, immediately followed by a 9-mg/kg/hr continuous infusion of citrulline or placebo for 48 hours. Study participation ended at discharge or at Day 28 whichever came first.
(§2) Plasma citrulline concentration levels were the primary PK variable; these were assessed in blood samples collected at 7 perioperative time points. Secondary PK variables were concentrations of arginine and nitric oxide (NO) metabolites in the same sample set. PK values were compared between groups.

[9] = Phase IB study: plasma citrulline concentrations (Example 10A); type: in vivo, human; conditions: for Number of samples with Citrulline >100 μmol/L / Number of samples with Citrulline ≤100 μmol/L: all samples except baseline
Procedure: as §1, §2
The citrulline concentration levels during and after the CPB procedure was the PK parameter of interest in this study. The target level in patients treated with intravenous citrulline was a plasma citrulline level of >100 μmol/L during the immediate follow-up period after CPB. Plasma blood collection was performed at 7 perioperative time points: at baseline before surgery, during CPB (post-bolus 1), and after surgery/CPB at the time points 0 hours (pre bolus 2), 6 hours, 12 hours, 24 hours, and 48 hours.

[10] = total postoperative hours in ICU
[11] = revised IV protocol, Post Bolus 1
[12] = revised IV protocol, Pre Bolus 2

## NC(=O)NCCCC(N)C(=O)O (stereo not shown) [Citrulline, 2-amino-5-(carbamoylamino)pentanoic acid]
[1]
  attainment of sustained target plasma citrulline level of 100 μmol/L: did not reach the therapeutic sustained target plasma citrulline level
[2]
  duration of mechanical ventilation versus placebo (Kaplan-Meier): reduced duration of mechanical ventilation
[3]
  hemodynamic instability: No hemodynamic instability
[3]; 1 hour post
  Mean Arterial Blood Pressures: 67.4 mmHg
[3]; 2 hours post
  Mean Arterial Blood Pressures: 64.8 mmHg
[3]; 3 hours post
  Mean Arterial Blood Pressures: 62.2 mmHg
[3]; Pre-dose
  Mean Arterial Blood Pressures: 67.0 mmHg
[4]; re-intubation excluded
  Longest duration of mechanical ventilation, i.v. inotrope use, or vasodilator use, Diff (CI) placebo vs citrulline: 17.5 (−1.2, 36.2) hours
  Longest duration of mechanical ventilation, i.v. inotrope use, or vasodilator use, Mean ± SD: 14.5 ± 13.99 h
  Longest duration of mechanical ventilation, i.v. inotrope use, or vasodilator use, Median: 15.0 h
  Longest duration of mechanical ventilation, i.v. inotrope use, or vasodilator use, Range: 0.0 to 47.0 h
[4]; re-intubation included
  Longest duration of mechanical ventilation, i.v. inotrope use, or vasodilator use, Diff (CI) placebo vs citrulline: 29.9 (−11.0, 70.9) hours
  Longest duration of mechanical ventilation, i.v. inotrope use, or vasodilator use, Mean ± SD: 14.5 ± 13.99 h
  Longest duration of mechanical ventilation, i.v. inotrope use, or vasodilator use, Median: 15.0 h
  Longest duration of mechanical ventilation, i.v. inotrope use, or vasodilator use, Range: 0.0 to 47.0 h
[4]; [10]
  Duration of PICU stay, Diff (CI) placebo vs citrulline: 69.14 (−49.39, 187.67) hours
  Duration of PICU stay, Median: 28.52 h
  Duration of PICU stay, Range: 20.8 to 72.0 h
[4]; total postoperative hours in ICU, N = 11
  Duration of PICU stay, Mean ± SD: 35.94 ± 16.150 h
[5]
  Duration of hospitalization, Diff (CI) placebo vs citrulline: 3.7 (−2.2, 9.7) days
  Duration of hospitalization, Median: 5.0 days
  Duration of hospitalization, Range: 3.0 to 7.0 days
[5]; N = 11
  Duration of hospitalization, Mean ± SD: 4.6 ± 1.21 days
[6]; Re-intubation time excluded
  Duration of invasive mechanical ventilation, Diff (CI) placebo vs citrulline: 19.5 (1.9, 37.2) hours
  Duration of invasive mechanical ventilation, Mean ± SD: 5.1 ± 8.15 h
  Duration of invasive mechanical ventilation, Median: 0.0 h
  Duration of invasive mechanical ventilation, Range: 0.0 to 22.5 h
[6]; Re-intubation time included
  Duration of invasive mechanical ventilation, Diff (CI) placebo vs citrulline: 32.0 (−9.5, 73.4) hours
  Duration of invasive mechanical ventilation, Median: 0.0 h
  Duration of invasive mechanical ventilation, Range: 0.0 to 22.5 h
[6]; Re-intubation time included, N = 11
  Duration of invasive mechanical ventilation, Mean ± SD: 5.1 ± 8.15 h
[6]; Re-intubation time included, N = 11, listed as citrulline
  Duration of invasive mechanical ventilation, Mean ± SD: 5 h
[6]; placebo 2
  patients extubated in the operating room: 6 patients
[6]; placebo 33%
  patients extubated in the operating room: 100%
[7]; Re-intubation time excluded
  Composite duration of invasive mechanical ventilation or inotrope use, Diff (CI) placebo vs citrulline: 17.7 (−1.0, 36.4) hours
  Composite duration of invasive mechanical ventilation or inotrope use, Mean ± SD: 14.3 ± 14.06 h
  Composite duration of invasive mechanical ventilation or inotrope use, Median: 15.0 h
  Composite duration of invasive mechanical ventilation or inotrope use, Range: 0.0 to 47.0 h
[7]; Re-intubation time included
  Composite duration of invasive mechanical ventilation or inotrope use, Diff (CI) placebo vs citrulline: 30.2 (−10.8, 71.1) hours
  Composite duration of invasive mechanical ventilation or inotrope use, Mean ± SD: 14.3 ± 14.06 h
  Composite duration of invasive mechanical ventilation or inotrope use, Median: 15.0 h
  Composite duration of invasive mechanical ventilation or inotrope use, Range: 0.0 to 47.0 h
[8]
  plasma nitric oxide levels across the sampling time points: remained more or less unchanged
[9]; Site 01
  Number of samples with Citrulline >100 μmol/L: 25
  Number of samples with Citrulline ≤100 μmol/L: 2
[9]; Site 02
  Number of samples with Citrulline >100 μmol/L: 29
  Number of samples with Citrulline ≤100 μmol/L: 3
[9]; of the total of 59 samples, excluding baseline samples
  samples with plasma citrulline levels <100 μmol/L: 5
[9]; revised IV protocol, N = 11, Baseline
  Citrulline concentrations, Mean ± SD: 200.9 ± 569.89 µmol/L
[9]; revised IV protocol, Baseline
  Citrulline concentrations, Median: 32.0 µmol/L
[9]; revised IV protocol, Hour 6
  Citrulline concentrations, Mean ± SD: 167.8 ± 117.67 µmol/L
  Citrulline concentrations, Median: 138.0 µmol/L
[9]; revised IV protocol, Hour 12
  Citrulline concentrations, Mean ± SD: 127.1 ± 16.18 µmol/L
  Citrulline concentrations, Median: 125.0 µmol/L
[9]; revised IV protocol, Hour 24
  Citrulline concentrations, Mean ± SD: 125.3 ± 38.74 µmol/L
  Citrulline concentrations, Median: 114.0 µmol/L
[9]; [11]
  Citrulline concentrations, Mean ± SD: 2405.9 ± 1517.4 µmol/L
  Citrulline concentrations, Median: 2577.0 µmol/L
[9]; [12]
  Citrulline concentrations, Mean ± SD: 890.9 ± 1077.5 µmol/L
  Citrulline concentrations, Median: 573.0 µmol/L
[9]; revised IV protocol, target level 100 μmol/L
  plasma citrulline levels achieved: > 100 µmol/L
